From patent US6955873B1, “Diagnosis and treatment system for reward deficiency syndrome (RDS) and related behaviors” (priority 1999, dated 2005)
“Also recorded” adds a separate entry of the source. Where two headings read alike, the source gives them in different places.

Legend:
[1] = test system: animals; details: cited from earlier work; for rewarding actions: dopamine receptor agonists
[2] = test system: subjects diagnosed with ADHD; details: study in the early 70's; cited from earlier work
[3] = test system: animals and humans; details: cited from earlier work
[4] = test system: patients with age-related memory disorders; details: certain patients; not substantiated by clinical trials; cited from earlier work
[5] = test system: swine; details: in vivo; cited from earlier work
[6] = test system: aminotripepidase; details: cited from earlier work
[7] = test system: rhinovirus; details: reported 1974; cited from earlier work
[8] = test system: animals and man; details: cited from earlier work; for analgesia: used separately
[9] = test system: adult albino rats; details: 10 day administration, 500 ng/kg per day with the drinking water; cited from earlier work
[10] = test system: cell culture; details: concentrations thousands of times higher than physiological levels; cited from earlier work
[11] = test system: common cold; details: high dose supplementation; cited from earlier work
[12] = test system: humans; test: Blood pressure in humans; assay type: in vivo, human; details: single dose
[13] = test system: pain patients; details: cited from earlier work
[14] = test system: mice; details: animal tests; cited from earlier work
[15] = test system: spontaneously hypertensive rats (SHR); test: Blood pressure in spontaneously hypertensive rats (SHR); details: rat, in vivo
Source text: D-Phenylalanine was able to lower systolic blood pressure of these rats close to normal (average drop of 36.7 mm Hg). It is noteworthy that this effect is blocked by the narcotic antagonist and the effect on blood pressure is synergistic with the beta-blocker popranolol. Even more important is that the lowering of blood pressure by d-phenylalanine lasted several days.

[16] = test system: neurons; details: cited from earlier work
[17] = cited from earlier work; for duration of action: in vivo
[18] = test system: animals; details: cited from earlier work
[19] = test system: humans; details: in vivo; cited from earlier work
[20] = test system: alcoholics; details: in vivo; cited from earlier work
[21] = test system: mice; details: cited from earlier work
[22] = test system: mice; details: cited from earlier work; remark: listed apart in the source
[23] = test system: synaptosomes in rat brain slices; details: cited from earlier work
[24] = in vivo; cited from earlier work
[25] = test system: allergy tested subjects with common cold; details: lozenges
[26] = biological target: mu-opioid receptor (Mus musculus, UniProt P42866); details: spinal cord, wild-type mice; cited from earlier work
[27] = biological target: COMT (Homo sapiens, UniProt P21964); details: cited from earlier work
[28] = biological target: 5-HTP decarboxylase (Homo sapiens, UniProt P20711); details: cited from earlier work
[29] = test system: Blood Brain Barrier (BBB); details: mice, vs saline controls, cited from earlier work
[30] = test system: brain of mice; details: cited from earlier work
[31] = test system: MAO; details: cited from earlier work
[32] = test system: PMDD patients; details: 1200 mg of calcium; cited from earlier work
[33] = mu-opioid receptor knockout mice
[34] = homozygous mu-opioid receptor knockout mice
[35] = wild type (and heterozygous) mice

Chain of COMT (P21964 whole entry, species assumed): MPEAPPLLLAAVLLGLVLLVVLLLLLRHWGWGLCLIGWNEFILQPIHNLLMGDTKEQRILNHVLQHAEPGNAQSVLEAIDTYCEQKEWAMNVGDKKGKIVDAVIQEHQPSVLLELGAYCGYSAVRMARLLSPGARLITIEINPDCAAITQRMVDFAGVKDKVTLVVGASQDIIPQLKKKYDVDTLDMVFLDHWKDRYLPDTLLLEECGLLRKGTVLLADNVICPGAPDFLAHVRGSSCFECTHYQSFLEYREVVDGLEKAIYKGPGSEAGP
Chain of mu-opioid receptor (P42866 whole entry): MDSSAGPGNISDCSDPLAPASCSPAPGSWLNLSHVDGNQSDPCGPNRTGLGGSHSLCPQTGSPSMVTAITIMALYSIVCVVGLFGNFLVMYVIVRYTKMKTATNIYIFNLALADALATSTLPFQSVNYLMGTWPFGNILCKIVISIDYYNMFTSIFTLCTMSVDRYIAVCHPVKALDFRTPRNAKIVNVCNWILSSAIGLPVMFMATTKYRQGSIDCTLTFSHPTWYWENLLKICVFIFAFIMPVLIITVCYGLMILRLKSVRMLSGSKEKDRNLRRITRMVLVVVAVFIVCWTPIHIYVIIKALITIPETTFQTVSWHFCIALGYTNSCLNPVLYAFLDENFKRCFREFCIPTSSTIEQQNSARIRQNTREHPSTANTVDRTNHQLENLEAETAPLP
Chain of 5-HTP decarboxylase (P20711 whole entry): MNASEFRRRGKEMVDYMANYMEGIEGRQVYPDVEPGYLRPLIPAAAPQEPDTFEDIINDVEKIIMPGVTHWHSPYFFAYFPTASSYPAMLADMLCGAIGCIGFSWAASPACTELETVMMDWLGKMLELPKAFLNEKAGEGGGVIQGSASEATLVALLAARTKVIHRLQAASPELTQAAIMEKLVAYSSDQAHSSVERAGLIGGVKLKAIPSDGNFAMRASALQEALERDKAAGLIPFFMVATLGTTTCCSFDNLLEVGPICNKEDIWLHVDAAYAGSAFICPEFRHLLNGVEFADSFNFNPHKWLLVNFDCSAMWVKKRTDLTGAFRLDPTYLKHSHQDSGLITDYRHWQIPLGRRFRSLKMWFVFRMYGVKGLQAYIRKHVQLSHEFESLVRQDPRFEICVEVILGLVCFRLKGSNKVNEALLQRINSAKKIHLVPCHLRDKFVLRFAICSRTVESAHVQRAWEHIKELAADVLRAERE

## CN1CCc2cccc3c2[C@H]1Cc1ccc(O)c(O)c1-3 [apomorphine]
[1]
  rewarding actions: have rewarding actions

## NC(Cc1ccccc1)C(=O)O (racemic) [DL-phenylalanine]
[2]
  anxiety: reduced anxiety
  mood: increased the mood
[3]
  alcohol intake: significantly lowered

## Huperzine
[4]
  learning and memory: improves learning and memory

## methionine-enkephalin
[5]
  blood flow in specific brain sites (basal ganglia, frontal cortex, hippocampus): enhancement of blood flow

## [Zn+2] [zinc ions]
[6]
  inhibition of aminotripepidase: potent inhibitor
[7]
  rhinovirus replication: inhibit

## CC(C)C[C@@H](N)C(=O)O [D-leucine]
[3]
  alcohol intake: significantly lowered
[8]; animals and man
  analgesia: excellent analgesia

## O=C(CCCN1CCC(O)(c2ccc(Cl)cc2)CC1)c1ccc(F)cc1 [haloperidol]
[1]; animals
  alcohol and cocaine self-administration: atenuate or block

## NC(=O)CC[C@H](N)C(=O)O [1-glutamine]
[9]
  content of glutamate, GABA and taurine in the brain: significant increase

## trivalent chromium
[10]
  chromosome breakage: can break chromosomes

## O=C1O[C@H]([C@@H](O)CO)C(O)=C1O [vitamin C]
[11]
  decrease of incidence of the common cold: no evidence

## O=C(O)CCc1ccccc1 [hydrocinnamic acid]
[3]
  alcohol intake: significantly lowered

## N[C@H](Cc1ccccc1)C(=O)O [D-phenylalanine]
[12]
  effect on blood pressure in normotensive individuals: no effect
[12]; humans
  duration of blood pressure lowering: one or more days
[13]; cross-over studies in humans
  pain associated with osteo- and rheumatoid arthritis: reduced pain
[13]; double-blind studies
  analgesia in patients reactive to approved analgesic drugs including opiates: induced analgesia
[13]; in vivo
  analgesic effects of acupuncture: enhance
[3]
  alcohol intake: significantly lowered
[14]
  anti-inflammatory character: exhibits anti-inflammatory character
[15]
  average drop of systolic blood pressure: 36.7 mm Hg
  duration of lowering of blood pressure: several days
  effect on blood pressure in presence of narcotic antagonist: blocked
  effect on blood pressure with the beta-blocker popranolol: synergistic
  heart rate: no change
  systolic and diastolic blood pressure: significantly lowered
[8]; animals and man
  tolerance or addiction: without developing tolerance or addiction
  analgesia: excellent analgesia
[8]; humans
  duration of analgesia: very long-lasting

## C/C=C1\[C@H]2C=C(C)C[C@]1(N)c1ccc(=O)[nH]c1C2 [Huperzine A]
[16]
  glutamate-induced cellular death of neurons: blocked
[17]; dose of 2 micrograms/kg
  time active: six hours
[17]
  duration of action: 3 h
[18]; behavioral studies in animals
  difference between amounts effective for memory and learning and the non-toxic-effect dose: 30-100 fold
[18]; dose of 2 micrograms/kg
  side effects: no remarkable side effects

## CC(C)C[C@H]1C(=O)N2CCC[C@H]2[C@]2(O)O[C@](NC(=O)[C@@H]3C=C4c5cccc6[nH]c(Br)c(c56)C[C@H]4N(C)C3)(C(C)C)C(=O)N12 [bromocriptine]
[19]
  short term memory: increase short term memory
[1]
  rewarding actions: have rewarding actions
[20]
  reducing relapse rates as a function of dopamine D2 receptor genotype: selective positive effect

## C=CCN1C[C@H](C)N([C@H](c2ccc(C(=O)N(CC)CC)cc2)c2cccc(OC)c2)C[C@H]1C [SNC8O]
[21]; [33]
  writhing responses: ineffective
[21]; wild-type mice
  writhing responses: effective

## DPDPE
[22]; [34]
  withdrawal responses to mechanical stimuli: not
[22]; [35]
  withdrawal responses to mechanical stimuli: reduced

## Tyr-Arg [Kyotorphin]
[23]
  intracellular calcium: enhance intracellular calcium
[24]
  analgesic activity: analgesic

## Nc1c2c(nc3ccccc13)CCCC2 [Cognex]
[17]
  duration of action: 2 h

## CC(C)CC(N)C(=O)O (racemic) [DL-leucine]
[3]
  alcohol intake: significantly lowered

## Tyr-D-arg
[23]
  intracellular calcium: enhance intracellular calcium
[24]
  analgesic activity: analgesic

## CC(=O)[O-].CC(=O)[O-].[Zn+2] [Zinc acetate]
[25]
  duration of common cold symptoms: significantly shortened
  symptoms associated with allergies: re3lieved

## CN1CC[C@]23c4c5ccc(O)c4O[C@H]2[C@@H](O)C=C[C@H]3[C@H]1C5 [Morphine]
[22]; [34]
  withdrawal responses to mechanical stimuli: no significant effect
[22]; [35]
  withdrawal responses to mechanical stimuli: dose-dependent reduction
[21]; [33]
  writhing responses: ineffective
[21]; wild-type mice
  writhing responses: effective

## C[C@@H](NC(=O)[C@@H](N)Cc1ccc(O)cc1)C(=O)NCC(=O)N(C)[C@@H](Cc1ccccc1)C(=O)NCCO [DAMGO]
[26]
  [35S]GTPgammaS binding: concentration-dependent Increases

## OC[C@H]1O[C@@H](OCCc2ccc(O)cc2)[C@H](O)[C@@H](O)[C@@H]1O [SAL, Salidosid]
[27]
  COMT activity: inhibit; also recorded: inhibits COMT activity
[28]
  activity of 5-HTP decarboxylase: does not alter
[29]; SAL 30 mg/Kg with 5-HTP 100 mg/kg
  increase of the rise in serotonin: 13%
[29]; SAL 30 mg/Kg with L-Dopa 50 mg/kg
  increase of the rise in exogenous DOPA: 26%
[30]; 30 mg/kg, animals
  disulfuram-induced decrease of NE in the brain: prevented
[30]; 30 mg/kg
  decrease of content of 5-HT: 15%
  decrease of content of NE: 26%
[30]; 100 mg/kg
  decrease of concentration of Dopamine: 28%
  decrease of concentration of NE: 20%
  decrease of concentration of serotonin: 23%
[30]; mouse, in vivo
  levels of epinephrine and DOPA: did not alter
[31]
  MAO activity: inhibit; also recorded: decreases MAO activity

## [Ca+2] [calcium]
[32]
  rate of reported symptoms relative to placebo: fifty percent
